Reference: ChEMBL document CHEMBL6153080, “Synthesis and Chemical Structure of the Cyclic Heptapeptide Stylissamide H” (J Nat Prod, 2025)

Tested on: HeLa
Test: Cytotoxicity against human HeLa cells incubated for 24 hrs by WST-8 assay
Type: functional, cell-based

| Structure (SMILES) | EC50 |
| --- | --- |
| CCC(C)[C@@H]1NC(=O)[C@@H]2CCCN2C(=O)[C@H](Cc2c[nH]c3ccccc23)NC(=O)[C@@H]2CCCN2C(=O)[C@@H](C(C)C)NC(=O)[C@H](Cc2ccccc2)NC(=O)[C@H](CO)NC1=O (single isomer, unassigned) | 61 µM |
| CC[C@H](C)[C@@H]1NC(=O)[C@@H]2CCCN2C(=O)[C@H](Cc2c[nH]c3ccccc23)NC(=O)[C@@H]2CCCN2C(=O)[C@H](C(C)C)NC(=O)[C@H](Cc2ccccc2)NC(=O)[C@H](CO)NC1=O | 78 µM |
